# Assay results taken from patent US11154550B2, “Treatment for neurodegeneration” (The University of Birmingham, priority 2012, dated 2021).
# Entries after “also recorded” stand apart in the source; their conditions may differ. Counter-ions that a name gives are not always drawn. Like-named read-outs stand apart in the source and are kept apart here.
# How the values were obtained:
# p21 = p21 fluorescent immunocytochemistry followed by high content cytometry in drug-treated SHSY-5Y cells; type: cell-based, Human; conditions: neuroblastoma cells
# Protocol: (§1) Human SHSY-5Y neuroblastoma cells were grown in DMEM:F12 supplemented with 10% FCS, penicillin (100 units/mil), streptomycin (100 μg/ml) and L-glutamine. The cells were plated for 24 hours into 96 well plates (5000 cells per well) before treatment with drugs. Each drug (doses applied in separate figures) and the control (DMSO) were applied to 8 technical replicate wells. After 24 hours treatment the cells were harvested by fixation in Glyofix and were post-fixed with ice cold 85% ethanol.
# (§2) For P21^cip staining, the alcohol was aspirated and replaced with 100 μl/well blocking solution (5% BSA in PBST [1:1000 Triton X]) and incubated for 30 minutes at room temperature. After aspirating the blocking solution, 50 μl/well primary antibody solution (monoclonal P21 Abcam, 1:1000 in PBST) was added and incubated over night at 4° C. and PBST was applied as negative control. The next day, the cells were washed by twice aspirating 200 μl/well PBST. Afterwards, 50 μl/well secondary antibody solution (Anti-mouse IgG-FITC, Abcam, 1:200 in PBST) was added, protecting the solutions and plates from light, and incubated overnight at +4° C. The next day, the cells were washed twice with 200 μl/well PBST and stained with propidium iodide solution. […]. The composition of the propidium iodide staining solution was 0.1% Triton-X-100, […] propidium iodide, […] RNase A in PBS. The cells were incubated with the staining solution for 25 minutes at 37° C., and then DNA content based on total fluorescence was measured with a High Content Cytometer (Acumen). This allows rapid analysis of whole 96 well plates with resolution equivalent to a 20× microscope objective. The measurement of p21 content of cells and nuclei was based on the direct measurement of fluorescent intensity.
# [1] = test system: Human SHSY-5Y neuroblastoma cells; assay: High content cytometry apoptosis assay in drug-treated SHSY-5Y cells; type: cell-based; conditions: 24 hours; for cell death: up to 200 microM
# Protocol: as §1, §2
# [2] = test system: C7, KD2 and KD3 cell lines (SK-N-AS derived); assay: Cell cycle analysis (propidium iodide DNA content cytometry) in drug-treated C7, KD2 and KD3 cells; type: cell-based, human; conditions: 24 hours, up to 100 μM
# Protocol: The C7 cell suspension were poured into sterile reagent reservoir labelled C7 and using multichannel pipette, 50 μl of cell suspension were dispense into each well. Then 50 μl of 2× culture media was added into each well. Plating was repeated for KD2 and KD3 cell lines. One plate of ‘zero day control’ was also prepared per experiment. On ‘zero day control’ plate, C7 cell line were plated into columns 1, 2, 7 and 8; KD2 cell line were plated into columns 3, 4, 9 and 10; KD3 cell line were plated into columns 5, 6, 11 and 12. Cells were plated at the same density for both ‘zero day control’ and experiment plates. The ‘zero day control’ plate remains untreated and is to be harvested just before the drugs were added into the treatment plates.
# For each drug, 2× working solutions are prepared in culture medium and added to the cultures. The highest drug concentration is 100 μM and final solvent (H2O/DMSO) concentration in the cultures is 1%.
# Using an 8-multichannel pipetor, 100 μl of 2× final drug concentrations were gently dispensed into the culture plates of C7, KD2 and KD3 cells. The time of the treatment was noted and cells were transferred back into 37° C./5% CO2 humidified incubator and were incubated for 24 hours.
# The propidium iodide staining was used to determine the cell cycle phase of the cells based on DNA content.
# To determine cut-offs for cells in different phases of the cell cycle, gate setting was performed based on the G1 and G2 peaks on the DNA content histogram. To determine the G1 and G2 peaks, the 3° total intensity in 20% histograms was analysed for each plate. Gates calculated were manually entered into the Acumen software.
# (§3) The data exported and quantified included separately all cells and single cells. Single cells were further subcategorised into euploid, apoptotic and polyploid cells. Euploid cells were additionally classified into cells in G1 S and G2M phases of the cell cycle.
# p21cip1 = p21cip1 immunostaining and cytometry in drug-treated C7, KD2 and KD3 cells; type: cell-based, human
# Protocol: BSA was removed from the plates after 30 minutes incubation. To C7, KD2 and KD3 plates, 50 μl of primary antibody (p21; Abcam ab7903; 1/1000 in PBST) solution was added to each well. On ‘zero day control’ plate, 50 μl of the primary antibody was added to columns 1-6 while columns 7-12 received only 50 μl PBST on each well. These (columns 7-12) serve as a negative controls and will received secondary antibody only. Plates were then wrapped in cling film and were incubated at +4° C. overnight. The following day, p21 primary antibody solution was removed from the plates and cells were washed by adding 200 μl of PBST. This was repeated once (total of 2 washes) and all plates were then subjected to secondary antibody treatment. Secondary antibody solution was made using am IgG-FITC (Abcam ab6785; 1/200 in PBST) and 50 μl was added to each well. Plates were then wrapped in aluminium foil to protect from light and were incubated at +4° C. for 2 hours. The immunostaining was used to measure the content of p21^cip1 in the cells. Measurement was carried out using a laser triggering the 1° channel (bandpass filter 500-530 nm). The total fluorescence intensity from the 1° channel was used to compare total protein levels in the different cell populations defined above. Mean fluorescence intensity per cell (for the whole of the population) and mean fluorescence intensity per cell (for positive cells only) were analysed separately. Additionally the proportion of positive cells in each population was calculated.
# [3] = test system: C7, KD2 and KD3 cell lines (SK-N-AS derived); assay: Apoptotic fraction in p21 positive versus p21 negative cells of drug-treated C7, KD2 and KD3 cultures; type: cell-based, human
# Protocol: as §3
# The total fluorescence intensity from the 1° channel was used to compare total protein levels in the different cell populations defined above. Mean fluorescence intensity per cell (for the whole of the population) and mean fluorescence intensity per cell (for positive cells only) were analysed separately. Additionally the proportion of positive cells in each population was calculated.
# [4] = all three cell lines (C7, KD2, KD3)
# [5] = G1 and G2 subpopulations, all three cell lines
# [6] = all cell lines (C7, KD2, KD3), 24 hours
compound,measurement,setting,value
CC(C(=O)O)c1ccc(-c2ccccc2)c(F)c1 (racemic) [Flurbiprofen],p21 expression,"p21; 0.01 and 0.1 microM, 24 hours",significantly increase
same,p21 expression in the nuclear compartment,"p21; 0.01 and 0.1 microM, 24 hours",significantly increase
same,expression and/or the functional activity of p21,p21,increased
same,apoptotic cell death,[1]; 0.01 and 0.1 microM,reduce apoptosis; also recorded: significantly reduce; also recorded: reduce apoptotic cell death
"O=C([O-])CCCc1ccccc1.[Na+] [4-PBA, Sodium 4-phenylbutyrate]",cell cycle effects,[2]; [4],no effects
same,p21 expression,"p21cip1; G2 cell population, all three cell lines",induces; also recorded: relatively small
same,p21 expression,"p21cip1; G2 cell population, all three cell lines, listed as Sodium 4-phenylbutyrate",induces
same,apoptosis in p21 positive cells relative to p21 negative cells,[3],significantly reduced apoptosis
"Cc1cc(C2CCCCC2)n(O)c(=O)c1 [CPX, Ciclopirox Olamine]",cell cycle effects,[2]; [4],slight G1 cell cycle arrest
same,p21 expression,p21cip1; [5],induces significant p21 expression
same,p21 expression,p21cip1; [6],up-regulates
same,apoptosis in p21 positive cells relative to p21 negative cells,[3],significant reduction of apoptotic cells; also recorded: reduced cell death
CCN(CC)CCCC(C)Nc1ccnc2cc(Cl)ccc12 (stereo not shown) [Chloroquine diphosphate],cell cycle effects,[2]; [4],no significant effect
same,cell cycle effects,"[2]; all three cell lines (C7, KD2, KD3), listed as chloroquine diphosphate",no significant cell cycle regulatory effects
same,proportion of protein positive cells,p21cip1; C7 cells,increased proportion
same,p21 expression,"p21cip1; C7 cells, G1 and G2M",significantly increased
same,proportion of protein positive cells,p21cip1; KD2 and KD3 cells,increased
same,p21 expression,"p21cip1; KD2 cells, G2M phase",up-regulated
same,p21 expression,"p21cip1; KD3 cell line, G1",upregulation
same,population of positive cells,p21cip1; all cell lines,increases
same,p21 expression,p21cip1; [6],up-regulates
same,apoptosis in p21 positive cells relative to p21 negative cells,[3],significantly less likely to be apoptotic; also recorded: significantly reduced cell death
"Nc1ccc(S(=O)(=O)c2ccc(N)cc2)cc1 [Dapsone, 4-Aminophenyl sulfone]",cell cycle effects,[2]; [4],No cell cycle effects
same,p21 expression,p21cip1; [6],significantly up-regulates
same,apoptosis in p21 positive cells relative to p21 negative cells,[3],significant reduction of apoptotic cells
C[C@@H](CN1CC(=O)NC(=O)C1)N1CC(=O)NC(=O)C1 [Dexrazoxane],expression and/or the functional activity of p21,p21,increased
same,p21 expression,"p21; up to 200 microM, 24 hours",significantly increase
same,cell death,[1],reduce neuronal cells death; also recorded: significantly reduced cell death
same,cell death,[1]; listed as Dexrasoxane,reduce apoptosis; also recorded: significantly reduced cell death
CC(=O)O[C@H]1C[C@@]2(C)[C@@H](C[C@@H](O)[C@H]3[C@@]4(C)CC[C@@H](O)[C@@H](C)[C@@H]4CC[C@@]32C)/C1=C(\CCC=C(C)C)C(=O)O [Fusidic acid],cell cycle effects,[2]; [4],weak G2 inhibitor
same,p21 expression,p21cip1; [6],significant increase; also recorded: induces significant p21 expression
same,apoptosis in p21 positive cells relative to p21 negative cells,[3],reduction of apoptosis
"CN(C)C(=O)C(CCN1CCC(O)(c2ccc(Cl)cc2)CC1)(c1ccccc1)c1ccccc1 [Loperamide, Loperamide hydrochloride]",cell cycle effects,"[2]; all three cell lines (C7, KD2, KD3), hydrochloride",weak G1 inhibitor; also recorded: weak G1 cell cycle arrest
same,p21 expression,p21cip1; [5],induce
same,p21 expression,p21cip1; [6],up-regulates
same,apoptosis in p21 positive cells relative to p21 negative cells,[3]; hydrochloride,significant reduction of apoptosis; also recorded: reduces apoptosis significantly
same,apoptosis in p21 positive cells relative to p21 negative cells,"[3]; listed as Loperamide hydrochloride, hydrochloride",significant reduction of apoptosis
"CCCC(CCC)C(=O)[O-].[Na+] [SV, Sodium Valproate]",cell cycle effects,[2]; C7 cell line,slight G2 arrest; also recorded: not seen
same,cell cycle effects,[2]; KD2 cell line,G1 inhibition; also recorded: slight G1 inhibitor effect
same,cell cycle effects,[2]; KD3 cell line,G1 inhibition; also recorded: slight G1 inhibitor effect
same,p21 protein expression,"p21cip1; G2 sub-population of cells, 1 μM, 24 hours",significant upregulation
same,p21 expression,p21cip1; [6],modest
same,apoptosis in p21 positive cells relative to p21 negative cells,[3],significant reduction of apoptotic fraction
